What was measured:
cool season turfgrass = assay: Turf grass selectivity, summary for cool season turfgrass; assay type: in vivo; conditions: 25 g ai/ha or more
From the text: Turf mats of Zoysia grass, bentgrass, Kentucky bluegrass, or perennial rye grass known as cool season turfgrass or western grass were purchased and cut into a piece having 10 cm×20 cm size. Then, each piece was transplanted in a rectangular plastic pot (surface area of 300 cm^2) in which sandy loam and mixed top soil (Boo-Nong Top Soil No. 3, for horticultural use) are filled in 1:1 ratio. After the transplantation, the grasses were cut once a week to maintain the blade height at 0.5-1.0 cm and cultivated for one month in a green house of which temperature was kept at 25˜30° C. for daytime and 15˜25° C. for nighttime, respectively. Then, the ‘test chemical’ of the above Examples 1 and 2 or ‘control chemical’ was applied thereto in an amount of 400, 200, 100, 50, 25, 12, 6, 3 g ai/ha. As a “control chemical”, pyrazolsulfuron ethyl wettable agent (manufactured by Dongbu Fine Chemicals; herein after, referred to as ‘control chemical No. 1’) and flazasulfuron (manufactured by Dongbu HiTek; herein after, referred to as ‘control chemical No. 2’), both sulfonylurea herbicides for a turf grass, were used. Application was carried out by using a track sprayer (R&D Sprayer, USA) equipped with Teejet 8002 nozzle (Spraying Systems Co., USA), and the application amount was adjusted to 2,000 L/ha, which is a typical application amount for a golf course in Korea. […]

Kummerowia striata = assay: Weed spectrum, greenhouse pot test; assay type: in vivo; conditions: two weeks after application
Method in brief: (§1)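 Scores reflect visual weed control two weeks after spraying, where 0 means no effect and 100 complete control. Plants grew in a greenhouse at 25˜30° C by day and 15˜25° C by night, with treatment either at sowing or at three-leaf stage.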

Digitaria sanguinalis = assay: Weed spectrum, greenhouse pot test; assay type: in vivo; conditions: for efficacy (0-100 scale): two weeks after application
Method in brief: as §1

Poa annua = assay: Weed spectrum, greenhouse pot test; assay type: in vivo; conditions: for efficacy (0-100 scale): two weeks after application
Method in brief: as §1

Cyperus amuricus = assay: Weed spectrum, greenhouse pot test; assay type: in vivo; conditions: two weeks after application
Method in brief: as §1

Portulaca oleracea = assay: Weed spectrum, greenhouse pot test; assay type: in vivo; conditions: two weeks after application
Method in brief: as §1

Viola arvensis = assay: Actual field condition test of Example 2 (turf grass field); assay type: in vivo; conditions: 50 g ai/ha
Method: The test chemical of the Example 2 was applied to a turf grass field, in which Viola arvensis as a representative hard-to-control perennial weed is thriving predominantly, to evaluate a weed control effect of the compound. The experiment was carried out from May to June, 2007 in the turf grass field within Korea Research Institute of Bioscience and Biotechnology (52, Ueun-dong, Yusong-gu, Daejon, South Korea). Fourteen days after the chemical application, the turf grass was cut once.

Zoysia japonica = assay: Actual field condition test of Example 1 (golf course); assay type: in vivo; conditions: 100 g ai/ha, twenty days after application
Method: (§2) The test chemical of the Example 1 was applied to a turf grass field, in which Digitaria sanguinalis as a representative summer-time poaceae weed and Kyllinga brevifolia as a representative hard-to-control perennial cyperaceae weed are thriving predominantly, to evaluate weed control effect of the compound. The experiment was carried out from May to July, 2008 in the Dae-duk Research Park golf course (Doryong-dong, Yusong-gu, Daejon, South Korea). At the time of the chemical application, Digitaria sanguinalis was at about 4-leaf stage and Kyllinga brevifolia was at growth period.

Kentucky bluegrass = assay: as above; assay type: in vivo, Poa pratensis; conditions: 100 g ai/ha, twenty days after application
Method: as §2

COc1nc(C)nc(NC(=O)NS(=O)(=O)c2cscc2C2(CF)OCCO2)n1 [Example 2, 3-(2-fluoromethyl-1,3-dioxalan-2-yl)-N-[(4-methoxy-6-methyltriazin-2-yl)aminocarbonyl]4-thiophene sulfonamide]
completely withered: phytotoxicity to cool season turfgrass (cool season turfgrass)
100: efficacy (0-100 scale) (Kummerowia striata; Post-emergence, 50 g ai/ha) | efficacy (0-100 scale) (Kummerowia striata; Post-emergence, 100 g ai/ha) | efficacy (0-100 scale) (Kummerowia striata; Pre-emergence, 100 g ai/ha) | efficacy (0-100 scale) (Digitaria sanguinalis; Post-emergence, 100 g ai/ha) | efficacy (0-100 scale) (Digitaria sanguinalis; Pre-emergence, 50 g ai/ha) | efficacy (0-100 scale) (Digitaria sanguinalis; Pre-emergence, 100 g ai/ha) | efficacy (0-100 scale) (Portulaca oleracea; Post-emergence, 50 g ai/ha) | efficacy (0-100 scale) (Portulaca oleracea; Post-emergence, 100 g ai/ha) | efficacy (0-100 scale) (Portulaca oleracea; Pre-emergence, 50 g ai/ha) | efficacy (0-100 scale) (Portulaca oleracea; Pre-emergence, 100 g ai/ha)
20: efficacy (0-100 scale) (Cyperus amuricus; Pre-emergence, 12 g ai/ha) | Effect on Viola arvensis (Viola arvensis; After 7 days)
at least 90%: weed controlled (Digitaria sanguinalis; 50 to 100 g/ha) | weed controlled (Poa annua; 50 to 100 g/ha)
40: efficacy (0-100 scale) (Digitaria sanguinalis; Post-emergence, 12 g ai/ha) | efficacy (0-100 scale) (Cyperus amuricus; Post-emergence, 25 g ai/ha)
30: efficacy (0-100 scale) (Cyperus amuricus; Post-emergence, 12 g ai/ha) | efficacy (0-100 scale) (Cyperus amuricus; Pre-emergence, 25 g ai/ha)
95: efficacy (0-100 scale) (Digitaria sanguinalis; Pre-emergence, 12 g ai/ha) | efficacy (0-100 scale) (Digitaria sanguinalis; Pre-emergence, 25 g ai/ha) | efficacy (0-100 scale) (Poa annua; Post-emergence, 100 g ai/ha)
50: efficacy (0-100 scale) (Poa annua; Pre-emergence, 12 g ai/ha) | efficacy (0-100 scale) (Cyperus amuricus; Post-emergence, 50 g ai/ha) | efficacy (0-100 scale) (Cyperus amuricus; Post-emergence, 100 g ai/ha) | efficacy (0-100 scale) (Cyperus amuricus; Pre-emergence, 50 g ai/ha) | Effect on Viola arvensis (Viola arvensis; After 14 days)
70: efficacy (0-100 scale) (Kummerowia striata; Post-emergence, 12 g ai/ha) | efficacy (0-100 scale) (Kummerowia striata; Post-emergence, 25 g ai/ha) | efficacy (0-100 scale) (Kummerowia striata; Pre-emergence, 12 g ai/ha) | efficacy (0-100 scale) (Digitaria sanguinalis; Post-emergence, 25 g ai/ha) | efficacy (0-100 scale) (Portulaca oleracea; Post-emergence, 12 g ai/ha)
80: efficacy (0-100 scale) (Poa annua; Post-emergence, 25 g ai/ha)
90: efficacy (0-100 scale) (Kummerowia striata; Pre-emergence, 25 g ai/ha) | efficacy (0-100 scale) (Kummerowia striata; Pre-emergence, 50 g ai/ha) | efficacy (0-100 scale) (Digitaria sanguinalis; Post-emergence, 50 g ai/ha) | efficacy (0-100 scale) (Poa annua; Post-emergence, 50 g ai/ha) | efficacy (0-100 scale) (Poa annua; Pre-emergence, 50 g ai/ha) | efficacy (0-100 scale) (Poa annua; Pre-emergence, 100 g ai/ha) | efficacy (0-100 scale) (Portulaca oleracea; Post-emergence, 25 g ai/ha) | efficacy (0-100 scale) (Portulaca oleracea; Pre-emergence, 12 g ai/ha) | efficacy (0-100 scale) (Portulaca oleracea; Pre-emergence, 25 g ai/ha)
60: efficacy (0-100 scale) (Poa annua; Post-emergence, 12 g ai/ha) | efficacy (0-100 scale) (Poa annua; Pre-emergence, 25 g ai/ha) | efficacy (0-100 scale) (Cyperus amuricus; Pre-emergence, 100 g ai/ha)

CCOC(=O)c1cnn(C)c1S(=O)(=O)NC(=O)Nc1nc(OC)cc(OC)n1 [Control chemical No. 1, Pyrazosulfuron ethyl, reference compound]
20: efficacy (0-100 scale) (Poa annua; Pre-emergence, 50 g ai/ha) | efficacy (0-100 scale) (Poa annua; Pre-emergence, 100 g ai/ha) | efficacy (0-100 scale) (Portulaca oleracea; Post-emergence, 12 g ai/ha) | efficacy (0-100 scale) (Portulaca oleracea; Pre-emergence, 12 g ai/ha)
10: efficacy (0-100 scale) (Digitaria sanguinalis; Post-emergence, 100 g ai/ha) | efficacy (0-100 scale) (Digitaria sanguinalis; Pre-emergence, 25 g ai/ha) | efficacy (0-100 scale) (Poa annua; Post-emergence, 100 g ai/ha) | efficacy (0-100 scale) (Poa annua; Pre-emergence, 25 g ai/ha)
80: efficacy (0-100 scale) (Cyperus amuricus; Post-emergence, 50 g ai/ha) | efficacy (0-100 scale) (Cyperus amuricus; Pre-emergence, 25 g ai/ha) | efficacy (0-100 scale) (Portulaca oleracea; Post-emergence, 100 g ai/ha)
60: efficacy (0-100 scale) (Portulaca oleracea; Post-emergence, 50 g ai/ha)
50: efficacy (0-100 scale) (Kummerowia striata; Post-emergence, 100 g ai/ha) | efficacy (0-100 scale) (Kummerowia striata; Pre-emergence, 25 g ai/ha) | efficacy (0-100 scale) (Kummerowia striata; Pre-emergence, 50 g ai/ha) | efficacy (0-100 scale) (Digitaria sanguinalis; Pre-emergence, 100 g ai/ha) | efficacy (0-100 scale) (Cyperus amuricus; Post-emergence, 12 g ai/ha)
70: efficacy (0-100 scale) (Kummerowia striata; Pre-emergence, 100 g ai/ha) | efficacy (0-100 scale) (Cyperus amuricus; Post-emergence, 25 g ai/ha) | efficacy (0-100 scale) (Cyperus amuricus; Pre-emergence, 12 g ai/ha) | efficacy (0-100 scale) (Portulaca oleracea; Pre-emergence, 50 g ai/ha)
0: phytotoxicity in actual field condition (Zoysia japonica) | efficacy (0-100 scale) (Kummerowia striata; Post-emergence, 12 g ai/ha) | efficacy (0-100 scale) (Digitaria sanguinalis; Post-emergence, 12 g ai/ha) | efficacy (0-100 scale) (Digitaria sanguinalis; Post-emergence, 25 g ai/ha) | efficacy (0-100 scale) (Digitaria sanguinalis; Post-emergence, 50 g ai/ha) | efficacy (0-100 scale) (Digitaria sanguinalis; Pre-emergence, 12 g ai/ha) | efficacy (0-100 scale) (Poa annua; Post-emergence, 12 g ai/ha) | efficacy (0-100 scale) (Poa annua; Post-emergence, 25 g ai/ha) | efficacy (0-100 scale) (Poa annua; Post-emergence, 50 g ai/ha) | efficacy (0-100 scale) (Poa annua; Pre-emergence, 12 g ai/ha) | phytotoxicity in actual field condition (Kentucky bluegrass)
100: efficacy (0-100 scale) (Cyperus amuricus; Post-emergence, 100 g ai/ha) | efficacy (0-100 scale) (Cyperus amuricus; Pre-emergence, 50 g ai/ha) | efficacy (0-100 scale) (Cyperus amuricus; Pre-emergence, 100 g ai/ha) | efficacy (0-100 scale) (Portulaca oleracea; Pre-emergence, 100 g ai/ha)
40: efficacy (0-100 scale) (Kummerowia striata; Post-emergence, 50 g ai/ha) | efficacy (0-100 scale) (Portulaca oleracea; Post-emergence, 25 g ai/ha)
30: efficacy (0-100 scale) (Kummerowia striata; Post-emergence, 25 g ai/ha) | efficacy (0-100 scale) (Kummerowia striata; Pre-emergence, 12 g ai/ha) | efficacy (0-100 scale) (Digitaria sanguinalis; Pre-emergence, 50 g ai/ha) | efficacy (0-100 scale) (Portulaca oleracea; Pre-emergence, 25 g ai/ha)
